Laboratory results: PubChem BioAssay AID248 (DTP/NCI, 2004)
Several values for one entry are separate records, joined by “and”; a condition that tells them apart may be missing. Equal values may be shown once. Toxic doses and inconclusive results are not listed.

System: L1210 leukemia ip in BDF1 mice, survival T/C
Test: NCI In Vivo Anticancer Drug Screen. Data for tumor model L1210 Leukemia (intraperitoneal) in B6D2F1 (BDF1) mice
Conditions: higher = longer survival
How it was run: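 Transplanted-tumor mice were given test agent; controls received vehicle only. Survival readings from the two groups were divided (treated over control).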

Compound: CC1CCC(NC(=O)N(CCCl)N=O)CC1 (stereo unspecified)
- T/C (endpoint: mean survival time, dose: 0.1 mg/kg/injection, schedule: Q01DX001 (ip), vehicle: clinical formulation): 211 % of control
- T/C (endpoint: mean survival time, dose: 0.2 mg/kg/injection, schedule: Q01DX001 (ip), vehicle: clinical formulation): 119 % of control
- T/C (endpoint: mean survival time, dose: 0.4 mg/kg/injection, schedule: Q01DX001 (ip), vehicle: clinical formulation): 223 % of control
- T/C (endpoint: mean survival time, dose: 0.45 mg/kg/injection, schedule: Q01DX009 (ip), vehicle: saline with Tween-80): 99 % of control and 103 % of control
- T/C (endpoint: mean survival time, dose: 0.9 mg/kg/injection, schedule: Q01DX009 (ip), vehicle: saline with Tween-80): 106 % of control and 118 % of control
- T/C (endpoint: mean survival time, dose: 1.0 mg/kg/injection, schedule: Q01DX001 (ip), vehicle: other): 112 % of control
- T/C (endpoint: mean survival time, dose: 1.0 mg/kg/injection, schedule: Q04DX002 (ip), vehicle: saline with Tween-80): 95 % of control and 100 % of control
- T/C (endpoint: mean survival time, dose: 2.0 mg/kg/injection, schedule: Q01DX001 (ip), vehicle: other): 118 % of control
- T/C (endpoint: mean survival time, dose: 2.0 mg/kg/injection, schedule: Q01DX009 (ip), vehicle: saline): 98 % of control
- T/C (endpoint: mean survival time, dose: 2.0 mg/kg/injection, schedule: Q04DX002 (ip), vehicle: saline with Tween-80): 101 % of control and 120 % of control
- T/C (endpoint: mean survival time, dose: 2.5 mg/kg/injection, schedule: Q01DX Z (ip), vehicle: Klucel (hydroxypropylcellulose) (HPC)): 115 % of control
- T/C (endpoint: mean survival time, dose: 3.1 mg/kg/injection, schedule: Q07DX003 (ip), vehicle: Klucel (hydroxypropylcellulose) (HPC)): 109 % of control
- T/C (endpoint: mean survival time, dose: 4.0 mg/kg/injection, schedule: Q01DX009 (ip), vehicle: saline): 104 % of control
- T/C (endpoint: mean survival time, dose: 4.0 mg/kg/injection, schedule: Q04DX002 (ip), vehicle: saline with Tween-80): 103 % of control and 107 % of control
- T/C (endpoint: mean survival time, dose: 5.0 mg/kg/injection, schedule: Q01DX Z (ip), vehicle: Klucel (hydroxypropylcellulose) (HPC)): 205 % of control
- T/C (endpoint: mean survival time, dose: 6.0 mg/kg/injection, schedule: Q01DX001 (ip), vehicle: other): 154 % of control
- T/C (endpoint: mean survival time, dose: 6.2 mg/kg/injection, schedule: Q07DX003 (ip), vehicle: Klucel (hydroxypropylcellulose) (HPC)): 100 % of control
- T/C (endpoint: mean survival time, dose: 6.7 mg/kg/injection, schedule: Q04DX004 (ip), vehicle: saline with Tween-80): 206 % of control
- T/C (endpoint: mean survival time, dose: 8.0 mg/kg/injection, schedule: Q01DX001 (ip), vehicle: other): 165 % of control
- T/C (endpoint: mean survival time, dose: 8.0 mg/kg/injection, schedule: Q01DX009 (ip), vehicle: saline): 117 % of control
- T/C (endpoint: mean survival time, dose: 10.0 mg/kg/injection, schedule: Q01DX001 (ip), vehicle: Klucel (hydroxypropylcellulose) (HPC)): 445 % of control
- T/C (endpoint: mean survival time, dose: 10.0 mg/kg/injection, schedule: Q01DX001 (ip), vehicle: clinical formulation): 280 % of control
- T/C (endpoint: mean survival time, dose: 10.0 mg/kg/injection, schedule: Q01DX001 (ip), vehicle: saline): 328 % of control
- T/C (endpoint: mean survival time, dose: 10.0 mg/kg/injection, schedule: Q01DX001 (iv), vehicle: clinical formulation): 186 % of control and 205 % of control and 245 % of control
- T/C (endpoint: mean survival time, dose: 10.0 mg/kg/injection, schedule: Q01DX Z (ip), vehicle: Klucel (hydroxypropylcellulose) (HPC)): 240 % of control and 282 % of control
- T/C (endpoint: mean survival time, dose: 10.0 mg/kg/injection, schedule: Q04DX004 (ip), vehicle: saline with Tween-80): 273 % of control
- T/C (endpoint: mean survival time, dose: 10.7 mg/kg/injection, schedule: Q01DX001 (ip), vehicle: saline with Tween-80): 181 % of control
- T/C (endpoint: mean survival time, dose: 12.0 mg/kg/injection, schedule: Q01DX001 (ip), vehicle: other): 213 % of control
- T/C (endpoint: mean survival time, dose: 12.5 mg/kg/injection, schedule: Q01DX001 (ip), vehicle: other): 241 % of control
- T/C (endpoint: mean survival time, dose: 12.5 mg/kg/injection, schedule: Q01DX001 (ip), vehicle: saline): 172 % of control
- T/C (endpoint: mean survival time, dose: 12.5 mg/kg/injection, schedule: Q07DX003 (ip), vehicle: Klucel (hydroxypropylcellulose) (HPC)): 294 % of control
- T/C (endpoint: mean survival time, dose: 13.0 mg/kg/injection, schedule: Q01DX001 (ip), vehicle: other): 196 % of control
- T/C (endpoint: mean survival time, dose: 15.0 mg/kg/injection, schedule: Q01DX001 (ip), vehicle: clinical formulation): 218 % of control
- T/C (endpoint: mean survival time, dose: 15.0 mg/kg/injection, schedule: Q01DX001 (ip), vehicle: saline): 238 % of control
- T/C (endpoint: mean survival time, dose: 15.0 mg/kg/injection, schedule: Q01DX001 (iv), vehicle: clinical formulation): 326 % of control
- T/C (endpoint: mean survival time, dose: 15.0 mg/kg/injection, schedule: Q01DX001 (iv), vehicle: saline): 154 % of control
- T/C (endpoint: mean survival time, dose: 15.0 mg/kg/injection, schedule: Q04DX004 (ip), vehicle: saline with Tween-80): 319 % of control
- T/C (endpoint: mean survival time, dose: 16.0 mg/kg/injection, schedule: Q01DX001 (ip), vehicle: other): 321 % of control
- T/C (endpoint: mean survival time, dose: 18.0 mg/kg/injection, schedule: Q01DX001 (ip), vehicle: other): 265 % of control
- T/C (endpoint: mean survival time, dose: 20.0 mg/kg/injection, schedule: Q01DX001 (ip), vehicle: Klucel (hydroxypropylcellulose) (HPC)): 442 % of control
- T/C (endpoint: mean survival time, dose: 20.0 mg/kg/injection, schedule: Q01DX001 (iv), vehicle: Klucel (hydroxypropylcellulose) (HPC)): 332 % of control
- T/C (endpoint: mean survival time, dose: 20.0 mg/kg/injection, schedule: Q01DX001 (iv), vehicle: clinical formulation): 371 % of control
- T/C (endpoint: mean survival time, dose: 20.0 mg/kg/injection, schedule: Q01DX Z (ip), vehicle: Klucel (hydroxypropylcellulose) (HPC)): 166 % of control
- T/C (endpoint: mean survival time, dose: 20.0 mg/kg/injection, schedule: Q04DX004 (ip), vehicle: saline with Tween-80): 290 % of control
- T/C (endpoint: mean survival time, dose: 22.0 mg/kg/injection, schedule: Q01DX001 (ip), vehicle: clinical formulation): 255 % of control
- T/C (endpoint: mean survival time, dose: 22.0 mg/kg/injection, schedule: Q01DX001 (ip), vehicle: saline): 326 % of control
- T/C (endpoint: mean survival time, dose: 22.0 mg/kg/injection, schedule: Q01DX001 (iv), vehicle: clinical formulation): 250 % of control
- T/C (endpoint: mean survival time, dose: 22.0 mg/kg/injection, schedule: Q01DX001 (iv), vehicle: saline): 202 % of control
- T/C (endpoint: mean survival time, dose: 24.0 mg/kg/injection, schedule: Q01DX001 (ip), vehicle: other): 252 % of control
- T/C (endpoint: mean survival time, dose: 24.0 mg/kg/injection, schedule: Q01DX001 (ip), vehicle: saline with Tween-80): 436 % of control
- T/C (endpoint: mean survival time, dose: 24.0 mg/kg/injection, schedule: Q01DX001 (oral), vehicle: other): 364 % of control
- T/C (endpoint: mean survival time, dose: 25.0 mg/kg/injection, schedule: Q01DX001 (ip), vehicle: other): 300 % of control
- T/C (endpoint: mean survival time, dose: 25.0 mg/kg/injection, schedule: Q01DX001 (ip), vehicle: saline): 382 % of control
- T/C (endpoint: mean survival time, dose: 25.0 mg/kg/injection, schedule: Q07DX003 (ip), vehicle: Klucel (hydroxypropylcellulose) (HPC)): 214 % of control
- T/C (endpoint: mean survival time, dose: 26.0 mg/kg/injection, schedule: Q01DX009 (ip), vehicle: saline with Tween-80): 97 % of control and 101 % of control
- T/C (endpoint: mean survival time, dose: 27.0 mg/kg/injection, schedule: Q01DX001 (ip), vehicle: other): 283 % of control
- T/C (endpoint: mean survival time, dose: 30.0 mg/kg/injection, schedule: Q01DX001 (ip), vehicle: other): 321 % of control
- T/C (endpoint: mean survival time, dose: 31.0 mg/kg/injection, schedule: Q01DX001 (ip), vehicle: other): 357 % of control
- T/C (endpoint: mean survival time, dose: 33.0 mg/kg/injection, schedule: Q01DX001 (ip), vehicle: saline): 326 % of control
- T/C (endpoint: mean survival time, dose: 33.0 mg/kg/injection, schedule: Q01DX001 (iv), vehicle: saline): 297 % of control
- T/C (endpoint: mean survival time, dose: 40.0 mg/kg/injection, schedule: Q01DX001 (ip), vehicle: Klucel (hydroxypropylcellulose) (HPC)): 180 % of control
- T/C (endpoint: mean survival time, dose: 40.0 mg/kg/injection, schedule: Q01DX001 (ip), vehicle: clinical formulation): 404 % of control
- T/C (endpoint: mean survival time, dose: 40.0 mg/kg/injection, schedule: Q01DX001 (iv), vehicle: Klucel (hydroxypropylcellulose) (HPC)): 395 % of control
- T/C (endpoint: mean survival time, dose: 40.0 mg/kg/injection, schedule: Q01DX001 (iv), vehicle: clinical formulation): 188 % of control and 251 % of control
- T/C (endpoint: mean survival time, dose: 40.0 mg/kg/injection, schedule: Q04DX004 (ip), vehicle: saline with Tween-80): 123 % of control
- T/C (endpoint: mean survival time, dose: 45.0 mg/kg/injection, schedule: Q01DX001 (ip), vehicle: other): 304 % of control
- T/C (endpoint: mean survival time, dose: 50.0 mg/kg/injection, schedule: Q01DX001 (ip), vehicle: other): 226 % of control
- T/C (endpoint: mean survival time, dose: 50.0 mg/kg/injection, schedule: Q01DX001 (ip), vehicle: saline): 326 % of control and 360 % of control
- T/C (endpoint: mean survival time, dose: 50.0 mg/kg/injection, schedule: Q07DX003 (ip), vehicle: Klucel (hydroxypropylcellulose) (HPC)): 121 % of control
- T/C (endpoint: mean survival time, dose: 62.0 mg/kg/injection, schedule: Q01DX001 (ip), vehicle: other): 109 % of control
- T/C (endpoint: mean survival time, dose: 64.0 mg/kg/injection, schedule: Q04DX002 (ip), vehicle: saline with Tween-80): 294 % of control and 313 % of control
- T/C (endpoint: mean survival time, dose: 67.0 mg/kg/injection, schedule: Q01DX001 (ip), vehicle: other): 230 % of control
- T/C (endpoint: mean survival time, dose: 72.0 mg/kg/injection, schedule: Q01DX001 (ip), vehicle: other): 113 % of control
- T/C (endpoint: mean survival time, dose: 75.0 mg/kg/injection, schedule: Q01DX001 (ip), vehicle: saline): 219 % of control and 296 % of control
- T/C (endpoint: mean survival time, dose: 91.0 mg/kg/injection, schedule: Q01DX001 (oral), vehicle: other): 280 % of control and 306 % of control and 388 % of control
- T/C (endpoint: mean survival time, dose: 400.0 mg/kg/injection, schedule: Q01DX001 (ip), vehicle: saline with Tween-80): 100 % of control
- T/C (endpoint: median survival time, dose: 1.8 mg/kg/injection, schedule: Q01DX009 (ip), vehicle: saline): 318 % of control
- T/C (endpoint: median survival time, dose: 7.5 mg/kg/injection, schedule: Q01DX009 (ip), vehicle: saline): 211 % of control
- T/C (endpoint: median survival time, dose: 12.5 mg/kg/injection, schedule: Q01DX001 (ip), vehicle: saline with Tween-80): 118 % of control and 121 % of control
- T/C (endpoint: median survival time, dose: 15.0 mg/kg/injection, schedule: Q01DX009 (ip), vehicle: saline): 96 % of control
- T/C (endpoint: median survival time, dose: 100.0 mg/kg/injection, schedule: Q01DX001 (ip), vehicle: saline with Tween-80): 106 % of control and 109 % of control
